Columns and labels:
[1] = Assay C: Hepatocyte clearance; assay type: in vitro ADME; conditions: human hepatocyte suspension, 1 μM test compound, six hours
Procedure: Assay C: Hepatocyte Clearance
The metabolic degradation of the test compound is assayed in a hepatocyte suspension. Hepatocytes (cryopreserved) are incubated in. Dulbecco's modified eagle medium (supplemented with 3.5 μg glucagon/500 mL, 2.5 mg insulin/500 mL and 3.75 mg/500 mL hydrocortison) containing 5% or 50% species serum.
Following a 30 min preincubation in an incubator (37° C., 10% CO2) 5 μl of test compound solution (80 μM; from 2 mM in DMSO stock solution diluted 1:25 with medium) are added into 395 μl hepatocyte suspension (cell density in the range 0.25-5 Mio cells/mL depending on the species, typically 1 Mio cells/mL; final concentration of test compound 1 μM, final DMSO concentration 0.05%).
The cells are incubated for six hours (incubator, orbital shaker) and samples (25 μl) are taken at 0, 0.5, 1, 2, 4 and 6 hours. Samples are transferred into acetonitrile and pelleted by centrifugation (5 min). The supernatant is transferred to a new 96-deepwell plate, evaporated under nitrogen and resuspended.
Decline of parent compound is analyzed by HPLC-MS/MS
CLint is calculated as follows CL_[…]=Dose/AUC=(C0/CD)/(AUD+clast/k)×1000/60. C0: initial concentration in the incubation [μM], CD: cell density of vital cells [10e6cells/mL], AUD: area under the data [μM×h], clast: concentration of last data point [μM], k: slope of the regression line for parent decline [h−1].
The calculated in vitro hepatic intrinsic clearance can be scaled up to the intrinsic in vivo hepatic Clearance and used to predict hepatic in vivo blood clearance (CL) by the use of a liver model (well stirred model).

[2] = molecular target: human TRPA1 ion channel (Homo sapiens (Human), UniProt O75762); experiment: Assay A: TRPA1 cell assay (FLIPR, AITC-induced intracellular calcium); assay type: cell-based; conditions: HEK293 cells over-expressing human TRPA1; agonist AITC 10 μM; FLIPRtetra; read-out: hTRPA1 IC50
Sequence of human TRPA1 ion channel (O75762 whole entry): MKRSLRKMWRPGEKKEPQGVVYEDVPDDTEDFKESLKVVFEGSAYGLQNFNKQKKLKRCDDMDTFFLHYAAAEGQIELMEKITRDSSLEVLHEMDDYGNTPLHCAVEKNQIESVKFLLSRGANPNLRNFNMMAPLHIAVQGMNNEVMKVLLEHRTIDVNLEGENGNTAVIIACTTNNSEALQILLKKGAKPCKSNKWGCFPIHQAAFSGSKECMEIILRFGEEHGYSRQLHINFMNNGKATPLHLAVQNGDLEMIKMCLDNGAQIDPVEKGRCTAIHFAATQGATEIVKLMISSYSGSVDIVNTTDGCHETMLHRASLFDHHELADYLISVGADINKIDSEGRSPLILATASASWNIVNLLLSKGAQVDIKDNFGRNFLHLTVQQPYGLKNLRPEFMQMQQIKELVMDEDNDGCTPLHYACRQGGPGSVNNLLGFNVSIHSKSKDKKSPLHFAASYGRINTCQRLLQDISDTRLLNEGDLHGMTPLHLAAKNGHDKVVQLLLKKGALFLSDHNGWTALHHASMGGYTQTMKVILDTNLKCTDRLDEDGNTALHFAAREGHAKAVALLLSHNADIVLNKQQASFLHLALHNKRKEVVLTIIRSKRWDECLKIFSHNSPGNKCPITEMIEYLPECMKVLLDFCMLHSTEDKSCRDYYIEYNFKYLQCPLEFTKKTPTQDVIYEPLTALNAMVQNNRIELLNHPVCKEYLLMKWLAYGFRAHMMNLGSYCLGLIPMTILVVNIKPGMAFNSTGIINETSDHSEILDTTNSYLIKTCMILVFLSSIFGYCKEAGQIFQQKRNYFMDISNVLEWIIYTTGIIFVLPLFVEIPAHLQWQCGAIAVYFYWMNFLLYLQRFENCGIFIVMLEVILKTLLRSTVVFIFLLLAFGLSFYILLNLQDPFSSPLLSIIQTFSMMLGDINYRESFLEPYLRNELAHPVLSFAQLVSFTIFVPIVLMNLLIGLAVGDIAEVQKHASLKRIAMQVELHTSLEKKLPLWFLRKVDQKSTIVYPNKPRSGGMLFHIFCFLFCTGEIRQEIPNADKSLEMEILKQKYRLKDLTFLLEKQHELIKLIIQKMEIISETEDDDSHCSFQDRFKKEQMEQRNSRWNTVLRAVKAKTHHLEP
Procedure: A human HEK293 cell line over-expressing the human TRPA1 ion channel (Perkin Elmer, Product No. AX-004-PCL) was used as a test system for compound efficacy and potency. Compound activity was determined by measuring the effect of compounds on intracellular calcium concentration induced by AITC (Allylisothiocyanat) agonism in a FLIPRtetra system (Molecular Devices).
The cells were obtained as frozen cells in cryo-vials and stored until use at −150° C. Cells were grown in culture medium (MEM/EBSS medium with 10% FCS and 0.4 mg/ML Geneticin). […] For sub-culturing cells were detached from flasks by Versene. At the day before the assay, cells were detached, washed twice with medium (MEM/EBSS medium with 10% FCS) and 20000 cells in 20p/well were seeded to Poly D-Lysin biocoated 384-well plates (black, clear bottom, Cat. 356697) from Corning. Plates were incubated for 24 hours at 37° C./5% CO2 before use in the assay.
The test compounds were dissolved in 100% DMSO at a concentration of 10 mM and in a first step diluted in DMSO to a concentration of 5 mM, followed by serial dilution steps in 100% DMSO. Dilution factor and number of dilution steps may vary according to needs. Typically 8 different concentrations by 1:5 dilutions were prepared, further intermediate dilutions (1:20) of the substances were carried out with HBSS/HEPES buffer (1×HEPES, Cat.14065 from Gibco, 20 mM HEPES, Cat. 83264 from SIGMA, 0.1% BSA Cat.11926 from Invitrogen, pH 7,4
At the assay day cells were washed 3× with assay puffer, 20 μL buffer remained in the wells after washing. 10 μL Ca6 kit (Cat.R8191 MolecularDevices) loading buffer in HBSS/HEPES was added to the cells and the plates were incubated with lid for 120 minutes at 37°/5% CO2. 10 μL of compound or controls in HBSS/HEPES buffer/5% DMSO from the intermediate dilution plate were carefully added to the wells. […] Finally 10 μL of the agonist AITC 50 μM dissolved in HBSS/HEPES buffer/0.05% DMSO (final concentration 10 μM) was added to the wells followed by an additional read on the FLIPRtetra device for 10 minutes. The area under the signal curve (AUC) after AITC addition was used for IC50/% inhibition calculations
Each assay microtiter plate contained wells with vehicle (1% DMSO) controls instead of compound as controls for AITC induced luminescence (100% CTL; high controls) and wells with vehicle controls without AITC as controls for non-specific changes in luminescence (0% CTL; low controls).
The analysis of the data was performed by the calculation of the area under signal curve of the individual wells. Based on this values the % value for the measurement of each substance concentration was calculated (AUC(sample)−AUC(low))*100/(AUC(high)−AUC(low)) using MegaLab software (in house development). The IC50 values were calculated from the % control values using MegaLab software. Calculation: [y=(ad)/(1+(x/c)^b)+d], a=low value, d=high value; x=conc M; c=IC50 M; b=hill; y=% ctrl

[3] = Assay B: Microsomal clearance; assay type: in vitro ADME; conditions: pooled human liver microsomes, 1 mg/ml protein, 1 μM test compound, 37° C.
Procedure: Assay B: Microsomal Clearance:
The metabolic degradation of the test compound is assayed at 37° C. with pooled liver microsomes. The final incubation volume of 100 μl per time point contains TRIS buffer pH 7.6 at RT (0.1 M), magnesium chloride (5 mM), microsomal protein (1 mg/ml) and the test compound at a final concentration of 1 μM.
Following a short preincubation period at 37° C., the reactions are initiated by addition of beta-nicotinamide adenine dinucleotide phosphate, reduced form (NADPH, 1 mM) and terminated by transferring an aliquot into solvent after different time points (0, 5, 15, 30, 60 min). Additionally, the NADPH-independent degradation is monitored in incubations without NADPH, terminated at the last time point. The [%] remaining test compound after NADPH independent incubation is reflected by the parameter c(control) (metabolic stability). The quenched incubations are pelleted by centrifugation (10000 g, 5 min).
An aliquot of the supernatant is assayed by LC-MS/MS for the amount of parent compound. The half-life (t1/2 INVITRO) is determined by the slope of the semilogarithmic plot of the concentration-time profile.

| SMILES | human Hepatocytes [% Qh] [1] [% Qh] | IC50 [2] [nM] | human LM [% Qh] [3] [% Qh] |
| --- | --- | --- | --- |
| Cc1c(C(N)=O)sc2ncn(Cc3nc(C[C@H](O)c4ccc5c(c4)OCO5)no3)c(=O)c12 [Example 8] | 24 | 56 | <23 |
| CNC(=O)c1sc2ncn(Cc3nc(C[C@H](O)c4ccc(F)cc4)no3)c(=O)c2c1C [Example 10] | 25 |  | <23 |
| Cc1c(C(N)=O)sc2ncn(Cc3nc(C[C@H](O)c4cc(F)cc(F)c4)no3)c(=O)c12 [Example 6] | 23 | 48 | <23 |
| Cc1c(C(=O)NCC(C)(C)O)sc2ncn(Cc3nc(C[C@H](O)c4ccc(Cl)cc4)no3)c(=O)c12 [Example 13] | 18 | 37 | <23 |
| CNC(=O)c1sc2ncn(Cc3nc(C[C@H](O)c4ccc5c(c4)OCO5)no3)c(=O)c2c1C [Example 9] | 24 | 78 | 29 |
| Cc1c(C(N)=O)sc2ncn(Cc3nc(C[C@H](O)c4ccc(F)c(F)c4)no3)c(=O)c12 [Example 5] | 37 | 48 | <23 |
| Cc1c(C(N)=O)sc2ncn(Cc3nc(C[C@H](O)c4ccc5c(c4)OC(F)(F)O5)no3)c(=O)c12 [Example 7] | 39 | 34 | 23 |

Continued, values first:

| human Hepatocytes [% Qh] [1] [% Qh] | IC50 [2] [nM] | human LM [% Qh] [3] [% Qh] | SMILES |
| --- | --- | --- | --- |
| 29 | 10 | <23 | CNC(=O)c1sc2ncn(Cc3nc(C[C@H](O)c4ccc(Cl)cc4)no3)c(=O)c2c1C [Example 11] |
| 29 | 20 | <23 | Cc1ccc([C@@H](O)Cc2noc(Cn3cnc4sc(C(N)=O)c(C)c4c3=O)n2)cc1 [Example 2] |
| 24 | 33 | <23 | CNC(=O)c1sc2ncn(Cc3nc(C[C@H](O)c4ccc(F)c(F)c4)no3)c(=O)c2c1C [Example 14] |
| 36 | 19 | <23 | Cc1c(C(N)=O)sc2ncn(Cc3nc(C[C@H](O)c4cc5ccccc5o4)no3)c(=O)c12 [Example 3] |
| 25 | 13 | 29 | Cc1c(C(N)=O)sc2ncn(Cc3nc(C[C@H](O)c4ccc(Cl)cc4)no3)c(=O)c12 [Example 1, 3-({3-[(2S)-2-(4-chlorophenyl)-2-hydroxyethyl]-1,2,4-oxadiazol-5-yl}methyl)-5-methyl-4-oxo-3H,4H-thieno[2,3-d]pyrimidine-6-carboxamide] |
| 29 | 33 | <23 | Cc1c(C(N)=O)sc2ncn(Cc3nc(C[C@H](O)c4ccc(F)cc4)no3)c(=O)c12 [Example 4] |
| 31 | 9 | <23 | O=C1NCCc2c1sc1ncn(Cc3nc(C[C@H](O)c4ccc(Cl)cc4)no3)c(=O)c21 [Example 15] |
| 39 | 16 | <23 | NC(=O)c1sc2ncn(Cc3nc(C[C@H](O)c4ccc(Cl)cc4)no3)c(=O)c2c1Cl [Example 16] |
| 36 | 15 | 24 | Cc1c(C(=O)NCC(F)F)sc2ncn(Cc3nc(C[C@H](O)c4ccc(Cl)cc4)no3)c(=O)c12 [Example 12] |
